Assay results published in ChEMBL document CHEMBL1811857, “Targeting HIV entry through interaction with envelope glycoprotein 120 (gp120): synthesis and antiviral evaluation of 1,3,5-triazines with aromatic amino acids” (J Med Chem, 2011).
Active and inactive are the calls of the source. The rule behind the calls is not given here.

What was measured:
[1] = system: Human immunodeficiency virus 1; assay: Antiviral activity against HIV1 3B infected in human CEM cells assessed as inhibition of virus-induced cytopathicity after 4 days; assay type: functional, organism-based; conditions: Human immunodeficiency virus 1, 3B, CCRF-CEM, 96 h
[2] = system: Human immunodeficiency virus 1; assay: Binding affinity to HIV1 3B recombinant gp-120 at 50 uM after 5 mins by surface plasmon resonance analysis
[3] = system: Human immunodeficiency virus 2; assay: Antiviral activity against HIV2 ROD infected in human CEM cells assessed as inhibition of virus-induced cytopathicity after 4 days; assay type: functional, organism-based; conditions: Human immunodeficiency virus 2, ISOLATE ROD, CCRF-CEM, 96 h
CCRF-CEM = assay: Cytotoxicity against human CEM cells after 4 days by Coulter counter analysis; assay type: cell-based; conditions: 96 h, read-out: EC50 (the source's name)
[4] = system: Human immunodeficiency virus 1; assay: Binding affinity to HIV1 3B recombinant gp-120 at 12.5 uM after 5 mins by surface plasmon resonance analysis
[5] = Solubility of the compound at >10 uM; assay type: physicochemical
PBMC [6] = assay: Cytotoxicity against human PBMC at 50 uM after 3 days; assay type: cell-based; conditions: 72 h
PBMC [7] = assay: Induction of CD25 expression in human PBMC after 3 days by FACS analysis; assay type: functional, cell-based
[8] = system: Human immunodeficiency virus 1; assay: Binding affinity to HIV1 3B recombinant gp-120 at 12.5 uM after 5 mins by surface plasmon resonance analysis in presence of […]
PBMC [9] = assay: Induction of CD69 expression in human PBMC after 3 days by FACS analysis; assay type: functional, cell-based
PBMC [10] = assay: Mitogenic activity in human PBMC after 3 days; assay type: functional, cell-based
[11] = Binding affinity to HIV1 ADA recombinant gp-120 after 5 mins using low density (792 RU) sensor chip by surface plasmon resonance analysis; design: species or system Human immunodeficiency virus 1
[12] = Binding affinity to HIV1 3B recombinant gp-120 after 5 mins using low density (792 RU) sensor chip by surface plasmon resonance analysis; design: species or system Human immunodeficiency virus 1
[13] = Binding affinity to HIV1 3B recombinant gp-120 after 5 mins using high density (10400 RU) sensor chip by surface plasmon resonance analysis; design: species or system Human immunodeficiency virus 1
PBMC [14] = assay: Induction of HLA-DR expression in human PBMC after 3 days by FACS analysis; assay type: functional, cell-based
[15] = system: Human immunodeficiency virus 1; assay: Antiviral activity against HIV1 3a-L infected in human PBMC cells assessed as inhibition of virus-induced cytopathicity after 4 days; assay type: functional, organism-based; conditions: Human immunodeficiency virus 1, 3a-L, 96 h

| EC50 [1] [µM] | EC50 [3] [µM] | SMILES | CC50 (CCRF-CEM) [µM] | further results |
| --- | --- | --- | --- | --- |
| 148 | 80 | O=C(O)[C@H](Cc1ccc(O)cc1)Nc1nc(NCc2cccc(CNc3nc(N[C@@H](Cc4ccc(O)cc4)C(=O)O)nc(N[C@@H](Cc4ccc(O)cc4)C(=O)O)n3)c2)nc(N[C@@H](Cc2ccc(O)cc2)C(=O)O)n1 | > 250 | Activity [2]: Active |
| 216 | > 250 | O=C(O)C[C@H](Nc1nc(NCCN(CCNc2nc(N[C@@H](CC(=O)O)C(=O)O)nc(N[C@@H](Cc3c[nH]c4ccccc34)C(=O)O)n2)CCNc2nc(N[C@@H](Cc3c[nH]c4ccccc34)C(=O)O)nc(N[C@H](CC(=O)O)C(=O)O)n2)nc(N[C@@H](Cc2c[nH]c3ccccc23)C(=O)O)n1)C(=O)O | > 250 | – |
| 19 | 22 | CCc1c(CNc2nc(N[C@@H](Cc3c[nH]c4ccccc34)C(=O)O)nc(N[C@H](Cc3c[nH]c4ccccc34)C(=O)O)n2)c(CC)c(CNc2nc(N[C@@H](Cc3c[nH]c4ccccc34)C(=O)O)nc(N[C@H](Cc3c[nH]c4ccccc34)C(=O)O)n2)c(CC)c1CNc1nc(N[C@@H](Cc2c[nH]c3ccccc23)C(=O)O)nc(N[C@H](Cc2c[nH]c3ccccc23)C(=O)O)n1 | > 250 | Activity [4]: Active |
| > 10 | > 10 | CCc1c(CNc2nc(NCCc3c[nH]c4ccccc34)nc(N[C@@H](Cc3c[nH]c4ccccc34)C(=O)O)n2)c(CC)c(CNc2nc(NCCc3c[nH]c4ccccc34)nc(N[C@@H](Cc3c[nH]c4ccccc34)C(=O)O)n2)c(CC)c1CNc1nc(NCCc2c[nH]c3ccccc23)nc(N[C@@H](Cc2c[nH]c3ccccc23)C(=O)O)n1 | > 10 | Activity [4]: Active; solubility [5]: Insoluble |
| 20 | 65 | O=C(O)[C@H](Cc1c[nH]c2ccccc12)Nc1nc(NCCN(CCNc2nc(N[C@@H](Cc3c[nH]c4ccccc34)C(=O)O)nc(N[C@H](Cc3c[nH]c4ccccc34)C(=O)O)n2)CCNc2nc(N[C@@H](Cc3c[nH]c4ccccc34)C(=O)O)nc(N[C@H](Cc3c[nH]c4ccccc34)C(=O)O)n2)nc(N[C@H](Cc2c[nH]c3ccccc23)C(=O)O)n1 | > 250 | – |
| 65 | 216 | O=C(O)[C@H](Cc1ccccc1)Nc1nc(NCCN(CCNc2nc(N[C@@H](Cc3ccccc3)C(=O)O)nc(N[C@H](Cc3ccccc3)C(=O)O)n2)CCNc2nc(N[C@@H](Cc3ccccc3)C(=O)O)nc(N[C@H](Cc3ccccc3)C(=O)O)n2)nc(N[C@H](Cc2ccccc2)C(=O)O)n1 | > 250 | – |
| – | – | CN[C@@H]1[C@H](O[C@@H]2O[C@H](CO)[C@@H](O)[C@H](OS(=O)(=O)O)[C@H]2O)[C@@H](O)[C@H](O[C@H]2c3cc(C)c(C(=O)N[C@H](C)C(=O)O)c(O)c3-c3c(cc4c(c3O)C(=O)c3cc(OC)cc(O)c3C4=O)[C@@H]2O)O[C@@H]1C [PRADIMICIN S] | > 250 | – |
| > 250 | > 250 | O=C(O)[C@H](Cc1ccc(O)cc1)Nc1nc(NCCOCCOCCNc2nc(N[C@@H](Cc3ccc(O)cc3)C(=O)O)nc(N[C@H](Cc3ccc(O)cc3)C(=O)O)n2)nc(N[C@@H](Cc2ccc(O)cc2)C(=O)O)n1 | > 250 | – |
| – | – | O=C(O)[C@H](Cc1c[nH]c2ccccc12)Nc1nc(NCc2ccccc2)nc(N[C@@H](Cc2c[nH]c3ccccc23)C(=O)O)n1 | – | Activity [2]: inactive |
| ≥ 250 | ≥ 250 | O=C(O)[C@H](Cc1ccc(O)cc1)Nc1nc(N[C@@H](Cc2ccc(O)cc2)C(=O)O)nc(N2CCN(c3nc(N[C@@H](Cc4ccc(O)cc4)C(=O)O)nc(N[C@@H](Cc4ccc(O)cc4)C(=O)O)n3)CC2)n1 | > 250 | – |
| – | – | O=C(O)[C@H](Cc1ccc(O)cc1)Nc1nc(NCc2ccccc2)nc(N[C@@H](Cc2ccc(O)cc2)C(=O)O)n1 | – | Activity [2]: inactive |
| 5.2 | 5.9 | CN[C@@H]1[C@H](O[C@@H]2OC[C@@H](O)[C@H](O)[C@H]2O)[C@@H](O)[C@H](O[C@H]2c3cc(C)c(C(=O)N[C@H](C)C(=O)O)c(O)c3-c3c(cc4c(c3O)C(=O)c3cc(OC)cc(O)c3C4=O)[C@@H]2O)O[C@@H]1C [PRADIMICIN A] | > 50 | – |
| 112 | 120 | O=C(O)[C@H](Cc1c[nH]c2ccccc12)Nc1nc(NCCOCCOCCNc2nc(N[C@@H](Cc3c[nH]c4ccccc34)C(=O)O)nc(N[C@H](Cc3c[nH]c4ccccc34)C(=O)O)n2)nc(N[C@@H](Cc2c[nH]c3ccccc23)C(=O)O)n1 | > 250 | – |
| 22 | 22 | CCc1c(CNc2nc(N[C@@H](Cc3ccc(O)cc3)C(=O)O)nc(N[C@@H](Cc3ccc(O)cc3)C(=O)O)n2)c(CC)c(CNc2nc(N[C@@H](Cc3ccc(O)cc3)C(=O)O)nc(N[C@@H](Cc3ccc(O)cc3)C(=O)O)n2)c(CC)c1CNc1nc(N[C@@H](Cc2ccc(O)cc2)C(=O)O)nc(N[C@@H](Cc2ccc(O)cc2)C(=O)O)n1 | > 250 | Activity [4]: Active; Activity (PBMC [6]): Non-toxic; Activity [2]: Active; Activity (PBMC [7]): inactive; Activity [8]: Active; Activity (PBMC [9]): inactive; Activity (PBMC [10]): inactive; Kd [11]: 1.71 µM; Kd [12]: 1.97 µM; Kd [13]: 2.61 µM; Activity (PBMC [14]): inactive; EC50 [15]: 20 µM |
| 16 | 22 | CCc1c(CNc2nc(N[C@@H](Cc3c[nH]c4ccccc34)C(=O)O)nc(N[C@@H](Cc3c[nH]c4ccccc34)C(=O)O)n2)c(CC)c(CNc2nc(N[C@@H](Cc3c[nH]c4ccccc34)C(=O)O)nc(N[C@@H](Cc3c[nH]c4ccccc34)C(=O)O)n2)c(CC)c1CNc1nc(N[C@@H](Cc2c[nH]c3ccccc23)C(=O)O)nc(N[C@@H](Cc2c[nH]c3ccccc23)C(=O)O)n1 | > 250 | Activity [4]: Active; Activity (PBMC [6]): Non-toxic; Activity [2]: Active; Activity (PBMC [7]): inactive; Activity [8]: Active; Activity (PBMC [9]): inactive; Activity (PBMC [10]): inactive; Kd [11]: 2.51 µM; Kd [12]: 1.61 µM; Kd [13]: 2.61 µM; Activity (PBMC [14]): inactive; EC50 [15]: 20 µM |
| 106 | 121 | O=C(O)[C@H](Cc1ccccc1)Nc1nc(N[C@@H](Cc2ccccc2)C(=O)O)nc(N2CCN(c3nc(N[C@@H](Cc4ccccc4)C(=O)O)nc(N[C@@H](Cc4ccccc4)C(=O)O)n3)CC2)n1 | > 250 | – |
| 18 | 33 | CCc1c(CNc2nc(N[C@@H](CC(=O)O)C(=O)O)nc(N[C@@H](Cc3c[nH]c4ccccc34)C(=O)O)n2)c(CC)c(CNc2nc(N[C@@H](CC(=O)O)C(=O)O)nc(N[C@@H](Cc3c[nH]c4ccccc34)C(=O)O)n2)c(CC)c1CNc1nc(N[C@@H](CC(=O)O)C(=O)O)nc(N[C@@H](Cc2c[nH]c3ccccc23)C(=O)O)n1 | > 250 | Activity [4]: Active |
| ≥ 250 | ≥ 250 | O=C(O)[C@H](Cc1ccccc1)Nc1nc(NCCOCCOCCNc2nc(N[C@@H](Cc3ccccc3)C(=O)O)nc(N[C@H](Cc3ccccc3)C(=O)O)n2)nc(N[C@@H](Cc2ccccc2)C(=O)O)n1 | > 250 | – |
| > 10 | > 10 | O=C(O)[C@H](Cc1ccccc1)Nc1nc(NCc2cccc(CNc3nc(N[C@@H](Cc4ccccc4)C(=O)O)nc(N[C@@H](Cc4ccccc4)C(=O)O)n3)c2)nc(N[C@@H](Cc2ccccc2)C(=O)O)n1 | > 10 | solubility [5]: Insoluble |
| ≥ 250 | ≥ 250 | O=C(O)[C@H](Cc1ccc(O)cc1)Nc1nc(NCCN(CCNc2nc(N[C@@H](Cc3ccc(O)cc3)C(=O)O)nc(N[C@H](Cc3ccc(O)cc3)C(=O)O)n2)CCNc2nc(N[C@@H](Cc3ccc(O)cc3)C(=O)O)nc(N[C@H](Cc3ccc(O)cc3)C(=O)O)n2)nc(N[C@H](Cc2ccc(O)cc2)C(=O)O)n1 | > 250 | – |
| 26 | 24 | CCc1c(CNc2nc(N[C@@H](Cc3ccc(O)cc3)C(=O)O)nc(N[C@@H](Cc3c[nH]c4ccccc34)C(=O)O)n2)c(CC)c(CNc2nc(N[C@@H](Cc3ccc(O)cc3)C(=O)O)nc(N[C@@H](Cc3c[nH]c4ccccc34)C(=O)O)n2)c(CC)c1CNc1nc(N[C@@H](Cc2ccc(O)cc2)C(=O)O)nc(N[C@@H](Cc2c[nH]c3ccccc23)C(=O)O)n1 | > 250 | Activity [4]: Active |
